Measurements from article PMC3706801 (Alzheimer's Research & Therapy, 2013).

Legend:
NT2/D1 cells = experiment: Curcuminoid binding to NT2/D1 cells
Experimental: NT2/D1 cells were grown in 25 cm^2 flasks to a density of about 90% confluence (6 to 8 × 10^6 cells) with 6 ml of Dulbecco's Minimal Essential Medium (DMEM) containing 5% fetal calf serum (FCS). […] The remaining volume consisted of varying ratios of DMEM and mouse serum to generate dose curves with constant curcuminoid and variable serum concentrations. […] Cells were then washed three times in the flasks with 5 mL of 0.9% saline and then scraped into 1 ml of the same solution. The cell suspension was centrifuged at 3,000 × g for one minute and the supernatant removed. The cell pellet was resuspended in 1 ml of 0.6% saline and re-centrifuged. The final pellet was suspended in 0.4 ml of 0.6% saline and mixed with 0.8 ml of acetone. All samples were stored at -20°C for 2 to 16 h and processed for reversed phase chromatography as described above for tissue preparation.

[1] = parameters: method as in PMID 18417733; details: intramuscular 3 mg/kg, four hours after injection; cited from earlier work
[2] = parameters: method as in PMID 17340565; details: i.v. 10 mg/kg in DMA/PEG/dextrose, rats; read-out: initial plasma concentrations; cited from earlier work
[3] = cited from earlier work
[4] = HP-γ-CD-solubilized, dose curve ~50% BMAX, Figure 9B left
[5] = HP-γ-CD-solubilized, saturating (100% BMAX), 300 μM, no serum, Figure 9B middle
[6] = HP-γ-CD-solubilized, serum competition, 95% serum, Figure 9B right
[7] = mouse serum-solubilized, dose curve ~50% BMAX, Figure 9A left
[8] = mouse serum-solubilized, saturating (100% BMAX), 200 μM, 5% serum, Figure 9A middle
[9] = mouse serum-solubilized, serum competition, 100% serum, Figure 9A right

Row | Compound | relative contribution to cell-bound curcuminoids (percentage of the total) (NT2/D1 cells; [4]) [%] | relative contribution to cell-bound curcuminoids (percentage of the total) (NT2/D1 cells; [5]) [%] | relative contribution to cell-bound curcuminoids (percentage of the total) (NT2/D1 cells; [6]) [%] | relative contribution to cell-bound curcuminoids (percentage of the total) (NT2/D1 cells; [7]) [%] | relative contribution to cell-bound curcuminoids (percentage of the total) (NT2/D1 cells; [8]) [%] | relative contribution to cell-bound curcuminoids (percentage of the total) (NT2/D1 cells; [9]) [%] | brain levels [1] | C0 [2] [µM] | plasma levels after oral administration [3] [µM]
1 | COc1cc(/C=C/C(O)=C/C(=O)/C=C/c2ccc(O)cc2)ccc1O [DMC, demethoxycurcumin] | 23 | 24 | 19 | 24 | 24 | 20 |  |  | 
2 | curcumin | 42 | 28 | 55 | 49 | 61 | 65 | approximately 3.2 nmol/g | ~27 | ≤ 1
3 | bisdemethoxycurcumin [BDMC] | 35 | 48 | 26 | 27 | 15 | 15 |  |  | 
